Assay results published in patent US20110091577A1, “DRUG RELEASE COATINGS ON CALCUIM PHOSPHATE AND USES THEREOF” (priority 2008, published 2011).

How the values were obtained:
staphylococci = settings: literature value (de Neeling et al., 1998); cited from earlier work
[1] = Gentamicin release study, parallel release reactions in PBS buffer; assay type: physicochemical; settings: FIG. 2A; 6.0 mg solid in 1.50 mL PBS, 37° C., pH 7.4
Procedure: Gentamicin and vancomycin loading and release are presented for a homopolymer system where the antibiotic gentamicin or vancomycin is bound to hydroxyapatite (HA) using commercially available poly-L-glutamate. This corresponds to the schematic illustrated in FIG. 1A. The experiment consisted of producing gentamicin or vancomycin adsorbed on poly-L-glutamate coated hydroxyapatite, and measuring the drug's rate of release into phosphate-buffered saline at 20° C. or 37° C. and pH 7.4, relative to a drug/hydroxyapatite control without the polymer. Gentamicin release study—Parallel release reactions: Gentamicin release rates from the experimental sample (G/pgHA) and control (G/HA) were measured by running multiple release reactions of each in parallel and stopping the reactions at different times. In each release sample 6.0 mg of solid was mixed in 1.50 mL of PBS buffer in an Eppendorf tube in a 37° C. shaker bath. Samples were removed from the bath at 15 minute intervals, centrifuged for 30 seconds, and the supernatant saved for later analysis.

gentamicin
minimum inhibitory concentration required to kill staphylococci (staphylococci): 4 µg/mL | time for adsorbed gentamicin to reach equilibrium with the buffer [1]: within one hour
